# From ChEMBL document CHEMBL1201862, “PubChem BioAssay data set” (2004)
# The source made the active and inactive calls.
# Assays:
# [1] = target: Adenosylmethionine-8-amino-7-oxononanoate aminotransferase (Mycobacterium tuberculosis, UniProt P9WQ81); assay: Mycobacterium tuberculosis BioA enzyme inhibitor Measured in Biochemical System Using Plate Reader - 2163-02_Inhibitor_Dose_CherryPick_Activity.; format: functional, Mycobacterium tuberculosis UT205
# Vero [2] = assay: viability of Vero cells under compound – cytotoxicity control for flavivirus capping enzyme inhibitors (AID 588742); format: functional; conditions: Chlorocebus sabaeus
# Streptokinase A = target: T1, Streptokinase A (Streptococcus pyogenes serotype M1, UniProt P10520); assay: viability-normalized secreted streptokinase activity reduction – plasminogen activation absorbance, OD405, dose response (AID 1914); format: functional, Streptococcus pyogenes M1 GAS;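 note: secreted streptokinase activity via plasminogen activation per viability signal from cell pellet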
# T1 sequence (P10520 whole entry): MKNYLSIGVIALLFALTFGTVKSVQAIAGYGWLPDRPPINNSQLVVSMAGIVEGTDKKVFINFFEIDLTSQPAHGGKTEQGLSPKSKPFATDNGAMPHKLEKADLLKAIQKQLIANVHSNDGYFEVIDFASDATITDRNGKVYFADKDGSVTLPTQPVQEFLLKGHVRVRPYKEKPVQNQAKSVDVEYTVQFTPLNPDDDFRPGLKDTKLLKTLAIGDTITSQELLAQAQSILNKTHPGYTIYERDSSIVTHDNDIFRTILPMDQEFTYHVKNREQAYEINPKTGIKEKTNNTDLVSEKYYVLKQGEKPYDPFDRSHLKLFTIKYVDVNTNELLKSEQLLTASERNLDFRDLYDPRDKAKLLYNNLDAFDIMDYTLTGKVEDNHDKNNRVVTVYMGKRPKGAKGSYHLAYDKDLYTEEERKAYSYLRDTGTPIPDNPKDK
# Streptococcus = assay: GAS UMAA2166 growth inhibition – luminescence, BacTiterGlo, counter-screen for streptokinase expression inhibitor project, dose response (AID 1915); format: functional, organism-based;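 note: potency for reduction of bacterial viability or growth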
# [3] = tested on: Streptococcus sp. 'group A'; assay: Streptococcus pyogenes SK(-)GAS viability under kanamycin – luminescence, BacTiterGlo, confirmation, counter-screen for streptokinase expression inhibitor project, dose response (AID 1900); format: functional, organism-based
# [4] = target: T2, Apoptotic protease-activating factor 1 (Homo sapiens, UniProt O14727); format: functional
# T2 sequence (O14727 whole entry): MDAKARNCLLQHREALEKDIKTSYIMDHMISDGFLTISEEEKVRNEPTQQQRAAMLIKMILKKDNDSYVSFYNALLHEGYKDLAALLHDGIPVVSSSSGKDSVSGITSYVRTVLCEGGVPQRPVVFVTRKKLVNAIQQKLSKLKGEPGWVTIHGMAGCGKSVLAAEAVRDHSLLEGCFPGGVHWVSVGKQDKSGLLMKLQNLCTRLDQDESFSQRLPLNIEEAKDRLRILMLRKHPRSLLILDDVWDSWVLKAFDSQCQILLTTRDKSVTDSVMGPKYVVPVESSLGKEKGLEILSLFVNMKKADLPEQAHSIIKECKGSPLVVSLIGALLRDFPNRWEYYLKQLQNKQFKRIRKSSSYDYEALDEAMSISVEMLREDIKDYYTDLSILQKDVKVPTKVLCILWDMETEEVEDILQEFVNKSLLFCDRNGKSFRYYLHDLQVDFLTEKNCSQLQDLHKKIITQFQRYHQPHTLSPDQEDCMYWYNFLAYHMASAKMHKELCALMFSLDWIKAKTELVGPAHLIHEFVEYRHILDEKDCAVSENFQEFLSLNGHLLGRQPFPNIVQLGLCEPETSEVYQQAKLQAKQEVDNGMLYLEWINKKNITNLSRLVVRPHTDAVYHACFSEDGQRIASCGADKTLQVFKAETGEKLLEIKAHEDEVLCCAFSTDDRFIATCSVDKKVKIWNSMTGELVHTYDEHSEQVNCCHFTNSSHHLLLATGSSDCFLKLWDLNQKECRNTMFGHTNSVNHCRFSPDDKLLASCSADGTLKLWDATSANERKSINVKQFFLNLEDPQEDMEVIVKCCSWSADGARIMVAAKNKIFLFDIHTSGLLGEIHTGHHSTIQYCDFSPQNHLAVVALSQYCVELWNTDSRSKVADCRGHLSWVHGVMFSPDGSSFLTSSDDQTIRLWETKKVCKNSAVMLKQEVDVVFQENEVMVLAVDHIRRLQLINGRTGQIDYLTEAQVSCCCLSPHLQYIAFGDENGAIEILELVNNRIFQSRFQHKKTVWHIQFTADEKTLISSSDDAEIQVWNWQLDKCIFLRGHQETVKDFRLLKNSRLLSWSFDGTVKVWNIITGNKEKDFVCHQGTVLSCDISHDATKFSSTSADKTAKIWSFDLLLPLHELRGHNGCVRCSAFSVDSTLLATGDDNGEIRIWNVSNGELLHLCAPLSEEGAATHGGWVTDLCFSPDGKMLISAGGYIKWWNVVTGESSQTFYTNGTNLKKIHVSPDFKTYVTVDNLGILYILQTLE
# [5] = target: T3, Polyadenylate-binding protein 1 (Homo sapiens, UniProt P11940); assay: MLLE binding blockers, Cy5 peptide tracer – biochemical, fluorescence polarization, Cy5-PAM2 peptide, secondary, miRNA deadenylation inhibitor project, dose response (AID 602260); format: functional; conditions: read-out: IC50_Mean
# T3 sequence (P11940 whole entry, the tested form may be a part): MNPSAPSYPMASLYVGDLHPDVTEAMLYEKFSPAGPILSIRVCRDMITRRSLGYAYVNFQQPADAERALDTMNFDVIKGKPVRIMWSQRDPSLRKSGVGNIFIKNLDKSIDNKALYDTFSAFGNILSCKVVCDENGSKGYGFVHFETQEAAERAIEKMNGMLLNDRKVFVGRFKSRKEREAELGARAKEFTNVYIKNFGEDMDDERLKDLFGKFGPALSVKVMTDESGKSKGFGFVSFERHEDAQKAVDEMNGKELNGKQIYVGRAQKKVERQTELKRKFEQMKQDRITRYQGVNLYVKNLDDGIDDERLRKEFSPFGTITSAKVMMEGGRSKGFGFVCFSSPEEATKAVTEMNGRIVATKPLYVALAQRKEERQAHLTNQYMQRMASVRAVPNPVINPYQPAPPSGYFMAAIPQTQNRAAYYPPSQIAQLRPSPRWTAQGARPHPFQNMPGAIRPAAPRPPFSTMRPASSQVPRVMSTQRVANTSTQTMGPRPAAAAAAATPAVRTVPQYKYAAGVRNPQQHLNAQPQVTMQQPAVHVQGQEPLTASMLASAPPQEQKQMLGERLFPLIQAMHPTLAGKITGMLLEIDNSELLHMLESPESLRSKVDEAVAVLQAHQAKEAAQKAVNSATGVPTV
# [6] = target: T3, Polyadenylate-binding protein 1; assay: MLLE domain peptide-binding blockers, IC50 – biochemical, fluorescence polarization, FITC-PAM2 peptide, dose response (AID 602259); format: functional; conditions: read-out: IC50_Mean
# INS1 = assay: INS-1E survival protection against cytokine death – cell-based, luminescence, retest, dose response (AID 449756); format: functional; conditions: Rattus norvegicus;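 note: cell death triggered by IL-1 beta plus TNF-alpha plus IFN-gamma mixture; protective hits raise ATP signal compared with cytokine alone wells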
# Protein Wnt-3a = Protein Wnt-3a (Mus musculus, UniProt P27467); assay: antagonism of Wnt3a pathway luciferase reporter – Wnt-LIGHT cells, luminescence, selectivity assay for Gli-SUFU antagonist project, dose response (AID 651570); format: functional; conditions: read-out: IC50_Mean;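 note: Wnt-LIGHT reporter cells stimulated with conditioned medium from Wnt3a-producing cells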
# Protein Wnt-3a, sequence (P27467 whole entry, the tested form may be a part): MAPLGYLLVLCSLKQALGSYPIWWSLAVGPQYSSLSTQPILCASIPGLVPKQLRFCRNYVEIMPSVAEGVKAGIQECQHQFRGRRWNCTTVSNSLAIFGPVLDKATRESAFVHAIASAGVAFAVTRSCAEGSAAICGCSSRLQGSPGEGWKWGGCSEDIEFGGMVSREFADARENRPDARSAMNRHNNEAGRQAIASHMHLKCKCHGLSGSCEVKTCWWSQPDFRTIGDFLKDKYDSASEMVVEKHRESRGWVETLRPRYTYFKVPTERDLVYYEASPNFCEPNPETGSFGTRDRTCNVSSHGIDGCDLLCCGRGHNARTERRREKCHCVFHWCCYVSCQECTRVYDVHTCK
# [7] = inhibition of ARNT PAS-B/TACC3 complex formation – biochemical, AlphaScreen, cherry-picked samples, confirmation (AID 651703); format: functional, Homo sapiens;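 note: His-tagged ARNT PAS-B domain paired with GST-TACC3 E629A dimer coactivator fragment; potency of inhibitors that break up the complex and lower AlphaScreen signal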
# [8] = viability loss of HPDE-C7K cells – cell-based, fluorescence, HTS, primary screen (AID 431); format: functional; conditions: Homo sapiens
# [9] = target: T4, Histone-lysine N-methyltransferase NSD2 (Homo sapiens, UniProt O96028); format: biochemical
# T4 sequence (O96028 whole entry): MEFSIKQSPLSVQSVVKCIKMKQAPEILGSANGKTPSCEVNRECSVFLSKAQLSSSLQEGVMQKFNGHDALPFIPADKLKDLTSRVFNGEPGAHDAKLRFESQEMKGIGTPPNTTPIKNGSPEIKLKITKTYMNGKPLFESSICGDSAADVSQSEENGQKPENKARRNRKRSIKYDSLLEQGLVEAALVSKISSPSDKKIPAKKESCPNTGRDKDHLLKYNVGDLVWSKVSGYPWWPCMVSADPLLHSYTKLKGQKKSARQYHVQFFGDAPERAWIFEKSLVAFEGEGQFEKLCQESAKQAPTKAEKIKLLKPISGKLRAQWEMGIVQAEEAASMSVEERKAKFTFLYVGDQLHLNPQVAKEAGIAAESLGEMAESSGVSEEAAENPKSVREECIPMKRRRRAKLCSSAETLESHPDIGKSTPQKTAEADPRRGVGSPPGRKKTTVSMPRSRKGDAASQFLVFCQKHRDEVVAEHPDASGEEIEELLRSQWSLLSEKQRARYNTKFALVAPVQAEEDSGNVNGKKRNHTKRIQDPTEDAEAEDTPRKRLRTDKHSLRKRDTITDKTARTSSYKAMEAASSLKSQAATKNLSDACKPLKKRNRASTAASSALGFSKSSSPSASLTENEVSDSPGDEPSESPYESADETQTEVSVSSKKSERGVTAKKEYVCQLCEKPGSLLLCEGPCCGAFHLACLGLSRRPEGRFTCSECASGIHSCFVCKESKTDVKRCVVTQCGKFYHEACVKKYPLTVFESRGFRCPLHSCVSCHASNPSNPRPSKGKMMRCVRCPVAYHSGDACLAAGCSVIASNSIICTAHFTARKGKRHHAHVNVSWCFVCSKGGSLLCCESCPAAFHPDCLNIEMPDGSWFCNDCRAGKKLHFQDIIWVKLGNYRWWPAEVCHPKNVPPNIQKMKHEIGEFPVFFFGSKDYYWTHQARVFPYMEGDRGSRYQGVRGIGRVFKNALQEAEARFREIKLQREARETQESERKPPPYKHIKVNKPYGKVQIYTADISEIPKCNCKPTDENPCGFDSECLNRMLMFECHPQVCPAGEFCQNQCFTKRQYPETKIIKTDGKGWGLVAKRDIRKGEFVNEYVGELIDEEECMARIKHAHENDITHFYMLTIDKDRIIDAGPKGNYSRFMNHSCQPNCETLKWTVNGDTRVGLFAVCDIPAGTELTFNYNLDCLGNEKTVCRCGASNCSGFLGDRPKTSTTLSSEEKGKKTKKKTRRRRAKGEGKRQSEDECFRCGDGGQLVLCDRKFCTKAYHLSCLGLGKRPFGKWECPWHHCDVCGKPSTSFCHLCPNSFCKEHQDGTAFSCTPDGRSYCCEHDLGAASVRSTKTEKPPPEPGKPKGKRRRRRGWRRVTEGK
# [10] = HPDE-C7 pancreatic duct cell viability loss – fluorescence, HTS (AID 430); format: functional, cell-based; conditions: Homo sapiens
# [11] = reduction of Shn3 3'UTR-driven luciferase in osteoblasts – cell-based, Clone20 osteoblasts, firefly luciferase, cherry-picked, dose response (AID 624132); format: functional;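 note: firefly luciferase luminescence from reporter carrying the Shn3 3'UTR in osteoblasts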
# [12] = non-specific 3'UTR reporter inhibition in Clone20-Shn3RL – cell-based, Renilla luciferase, cherry-picked, counter-screen for Shn3 inhibitor project, dose response (AID 624133); format: functional
# [13] = target: DNA repair and recombination protein RAD54-like (Homo sapiens, UniProt Q92698); assay: RAD54 Holliday junction migration blockers – biochemical, fluorescence, cherry-picked samples, dose series, confirmation (AID 651657); format: functional
# DNA repair and recombination protein RAD54-like, sequence (Q92698 whole entry): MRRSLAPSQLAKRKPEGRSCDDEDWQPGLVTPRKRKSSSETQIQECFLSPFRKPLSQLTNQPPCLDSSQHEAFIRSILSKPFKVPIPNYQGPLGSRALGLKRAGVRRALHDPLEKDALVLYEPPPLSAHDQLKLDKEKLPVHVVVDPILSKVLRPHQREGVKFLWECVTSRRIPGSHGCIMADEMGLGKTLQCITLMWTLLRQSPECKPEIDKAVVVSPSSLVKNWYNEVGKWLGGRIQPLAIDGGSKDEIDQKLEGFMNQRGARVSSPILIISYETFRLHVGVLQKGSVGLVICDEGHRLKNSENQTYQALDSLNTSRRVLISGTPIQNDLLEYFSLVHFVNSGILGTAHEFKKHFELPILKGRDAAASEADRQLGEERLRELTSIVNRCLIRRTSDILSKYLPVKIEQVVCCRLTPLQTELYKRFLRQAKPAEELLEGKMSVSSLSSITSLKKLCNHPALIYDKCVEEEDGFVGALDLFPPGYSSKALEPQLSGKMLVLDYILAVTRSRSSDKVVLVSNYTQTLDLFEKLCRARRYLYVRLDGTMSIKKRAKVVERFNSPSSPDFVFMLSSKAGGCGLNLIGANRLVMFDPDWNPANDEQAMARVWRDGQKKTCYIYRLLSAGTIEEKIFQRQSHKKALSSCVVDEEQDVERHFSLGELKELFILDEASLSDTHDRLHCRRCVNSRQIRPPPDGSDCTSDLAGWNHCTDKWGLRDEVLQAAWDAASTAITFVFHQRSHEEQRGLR
# [14] = loss of viability in HepG2 cells – cell-based, CellTiter-Glo, cherry-picked, cytotoxicity control for Shn3 inhibitor project, dose response (AID 624134); format: functional
# [15] = microbe, parasite or virus in culture; format: functional; conditions: Mycobacterium tuberculosis
# Interleukin-8 = target: T5, Interleukin-8 (Homo sapiens, UniProt P10145); assay: Dose Response confirmation of uHTS small molecule hits for cystic fibrosis induced NFkb Inhibitors in a PAF-induced IL8 counterscreen.; format: functional; conditions: read-out: IC50_Mean
# T5 sequence (P10145 whole entry): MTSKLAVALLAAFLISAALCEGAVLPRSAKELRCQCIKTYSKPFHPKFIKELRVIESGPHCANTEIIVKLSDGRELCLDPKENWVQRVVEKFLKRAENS
# Vero [16] = assay: cells; format: functional; conditions: Chlorocebus sabaeus
# HEK293 = assay: EBV LMP1 TES2 canonical NF-kB signalling blockers – cell-based, HEK293, luciferase, cherry-pick, dose response (AID 588343); format: functional; conditions: Homo sapiens
# Adenosylmethionine-8-amino-7-oxononanoate aminotransferase, sequence (P9WQ81 whole entry): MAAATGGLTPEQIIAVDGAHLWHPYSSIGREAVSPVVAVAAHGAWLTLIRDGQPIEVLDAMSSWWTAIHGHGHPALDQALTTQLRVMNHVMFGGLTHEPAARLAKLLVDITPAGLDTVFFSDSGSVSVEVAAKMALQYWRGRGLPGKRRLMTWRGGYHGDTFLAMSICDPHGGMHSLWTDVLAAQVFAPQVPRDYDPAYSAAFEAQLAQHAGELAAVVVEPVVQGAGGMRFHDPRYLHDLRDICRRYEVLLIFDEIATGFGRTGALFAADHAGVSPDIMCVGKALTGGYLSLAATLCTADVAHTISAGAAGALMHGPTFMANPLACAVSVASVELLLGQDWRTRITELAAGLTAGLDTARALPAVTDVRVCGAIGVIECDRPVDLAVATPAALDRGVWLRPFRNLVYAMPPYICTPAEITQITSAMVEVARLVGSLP
smiles,measurement,setting,value
CC(=O)c1ccc(C(=O)N2CCCC(C(=O)c3ccc(Cl)cc3)C2)s1 (centres undefined),AC50,[1],2.51 µM (active)
COc1ccc(NC(S)=NNc2ccc([N+](=O)[O-])cc2S(=O)(=O)Nc2ccc(C)cc2C)cc1,CC50,Vero [2],12.2 µM (active)
same,EC50,Streptokinase A,> 150 µM (not active)
same,EC50,Streptococcus,37.7 µM (active)
same,EC50,[3],6.57 µM (active)
CCc1ccc(NC(=S)Nc2cccc3cnccc23)cc1,IC50,[4],20 µM (active)
CC(C)C(=O)Nc1ccc(NC(=S)NC(=O)c2ccc([N+](=O)[O-])cc2)cc1,IC50,[5],> 66 µM (inactive)
same,IC50,[6],> 66 µM (inactive)
Cc1sc2ncnc(NCC(O)c3ccc([N+](=O)[O-])cc3)c2c1C (centres undefined),AC50,INS1,3.56 µM (active)
same,IC50,Protein Wnt-3a,0.544 µM (active)
COCCCn1c(N)c(C(=O)NCCC(C)C)c2nc3ccccc3nc21,IC50,[4],46.2 µM (active)
same,AC50,[7],74.7 µM (active)
same,EC50,[8],12 µM (active)
same,AC50,[9],15.9 µM (active)
same,EC50,[10],11.3 µM (active)
O=C(N[C@@H]1C/C=C\C[C@H](CC(=O)N(CCO)Cc2ccccc2)C(=O)NC[C@@H](c2ccccc2)OC1=O)OCC1c2ccccc2-c2ccccc21,AC50,[11],4.5 µM (active)
same,IC50,Protein Wnt-3a,4.4 µM (active)
same,AC50,[12],4.9 µM (active)
Cc1ccnc(SC2CC(=O)N(c3ccccc3)C2=O)n1 (centres undefined),IC50,[5],> 66 µM (inactive)
same,IC50,[6],> 66 µM (inactive)
CNC(=O)C[C@H]1CC[C@@H]2[C@H](COC[C@@H](O)CN2C(=O)Nc2cccc(OC)c2)O1,AC50,[1],4.57 µM (active)
CC(N)c1csc(Nc2nncc3ccccc23)n1 (centres undefined),AC50,[13],28.5 µM (active)
CCOC(=O)Oc1c(OC)cc(C(=O)O[C@@H]2C[C@@H]3CN4CCc5c([nH]c6cc(OC)ccc56)[C@H]4C[C@@H]3[C@H](C(=O)OC)[C@H]2OC)cc1OC [SYROSINGOPINE],AC50,[11],10.7 µM (active)
same,AC50,[14],50.6 µM (active)
same,CC50,[15],24.6 µM (active)
same,IC50,Interleukin-8,> 79 µM (inactive)
same,CC50,Vero [16],11.9 µM (active)
same,AC50,HEK293,24.6 µM (active)
same,AC50,[12],22.4 µM (active)
